Source: ChEMBL document CHEMBL1255181, “Synthesis and in vitro evaluation of N-alkyl-7-methoxytacrine hydrochlorides as potential cholinesterase inhibitors in Alzheimer disease” (Bioorg Med Chem Lett, 2010)
Calls of active or inactive are those of the source. The rule behind the calls is not given here.

Columns and labels:
Cholinesterase [1] = target: T1, Cholinesterase (Homo sapiens, UniProt P06276)
Description: Inhibition of human plasmatic BChE after 5 mins

Acetylcholinesterase = Acetylcholinesterase (Homo sapiens, UniProt P22303)
Description: Inhibition of human recombinant AChE after 5 mins

Cholinesterase [2] = target: T1, Cholinesterase; test: Inhibition of human plasmatic BChE at 1 mM to 0.1 nM after 5 mins; type: cell-free; settings: Plasma

Sequence of Acetylcholinesterase (P22303 whole entry): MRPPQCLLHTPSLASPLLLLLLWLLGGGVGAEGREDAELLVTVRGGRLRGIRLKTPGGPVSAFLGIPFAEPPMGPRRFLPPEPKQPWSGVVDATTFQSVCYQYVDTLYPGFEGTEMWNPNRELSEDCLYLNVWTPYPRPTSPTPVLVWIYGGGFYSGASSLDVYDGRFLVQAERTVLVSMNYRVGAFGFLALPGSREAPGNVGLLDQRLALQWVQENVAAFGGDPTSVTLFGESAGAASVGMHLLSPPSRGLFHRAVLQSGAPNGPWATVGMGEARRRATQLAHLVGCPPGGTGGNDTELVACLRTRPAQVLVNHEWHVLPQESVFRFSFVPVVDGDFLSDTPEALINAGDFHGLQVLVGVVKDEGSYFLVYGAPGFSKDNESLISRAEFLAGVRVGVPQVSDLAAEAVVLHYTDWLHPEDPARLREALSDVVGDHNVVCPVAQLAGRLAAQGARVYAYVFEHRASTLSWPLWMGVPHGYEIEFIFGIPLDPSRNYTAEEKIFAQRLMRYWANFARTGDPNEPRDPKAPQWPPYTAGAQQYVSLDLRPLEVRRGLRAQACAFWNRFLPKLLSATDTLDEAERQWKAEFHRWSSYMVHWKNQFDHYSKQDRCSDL
T1 sequence (P06276 whole entry): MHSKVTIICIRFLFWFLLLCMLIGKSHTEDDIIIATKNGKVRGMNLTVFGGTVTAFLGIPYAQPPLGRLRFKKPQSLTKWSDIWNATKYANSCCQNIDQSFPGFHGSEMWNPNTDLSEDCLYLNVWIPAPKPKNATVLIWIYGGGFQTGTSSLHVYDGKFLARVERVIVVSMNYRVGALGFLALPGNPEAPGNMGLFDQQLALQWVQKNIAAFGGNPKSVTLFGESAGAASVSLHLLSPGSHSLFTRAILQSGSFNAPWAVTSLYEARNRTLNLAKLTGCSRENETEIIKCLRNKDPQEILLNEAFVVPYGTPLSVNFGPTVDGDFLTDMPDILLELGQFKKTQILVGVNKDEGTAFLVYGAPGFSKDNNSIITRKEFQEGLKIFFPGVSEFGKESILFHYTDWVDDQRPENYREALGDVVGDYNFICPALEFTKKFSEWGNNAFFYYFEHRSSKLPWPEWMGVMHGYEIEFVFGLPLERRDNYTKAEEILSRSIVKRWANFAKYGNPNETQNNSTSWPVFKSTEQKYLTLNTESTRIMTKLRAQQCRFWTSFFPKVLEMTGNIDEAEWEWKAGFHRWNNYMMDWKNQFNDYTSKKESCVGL

SMILES	IC50 (Cholinesterase [1]) [µM]	IC50 (Acetylcholinesterase) [µM]	inhibition (Cholinesterase [2])
CCCCCCNc1c2c(nc3ccc(OC)cc13)CCCC2	1	0.1	–
CCCCCCCCCCCCCNc1c2c(nc3ccc(OC)cc13)CCCC2	–	100	inactive
CCCCNc1c2c(nc3ccc(OC)cc13)CCCC2	64	21	–
CCCCCCCCNc1c2c(nc3ccc(OC)cc13)CCCC2	0.12	0.36	–
CCCCCCCCCCCNc1c2c(nc3ccc(OC)cc13)CCCC2	–	–	inactive
CCCCCCCNc1c2c(nc3ccc(OC)cc13)CCCC2	0.04	0.27	–
CCCCCCCCCCCCCCCNc1c2c(nc3ccc(OC)cc13)CCCC2	–	–	inactive
CCCNc1c2c(nc3ccc(OC)cc13)CCCC2	70	9.2	–
CCCCCCCCCCNc1c2c(nc3ccc(OC)cc13)CCCC2	–	–	inactive
CCCCCNc1c2c(nc3ccc(OC)cc13)CCCC2	16	6.7	–
CCCCCCCCCNc1c2c(nc3ccc(OC)cc13)CCCC2	0.36	1.6	–
CCCCCCCCCCCCCCNc1c2c(nc3ccc(OC)cc13)CCCC2	–	46	inactive
CCCCCCCCCCCCNc1c2c(nc3ccc(OC)cc13)CCCC2	–	1	inactive
CCNc1c2c(nc3ccc(OC)cc13)CCCC2	97	66	–
